# Measurements from ChEMBL document CHEMBL1153206, “Evaluation of pyrrolin-2-one derivatives synthesized by a new practical method as inhibitors of plasminogen activator inhibitor-1 (PAI-1)” (Bioorg Med Chem Lett, 2010).
# Target: T1, Plasminogen activator inhibitor 1 (Homo sapiens, UniProt P05121)
# Test: Inhibition of human PAI1 at 10 uM
# T1 sequence (P05121 whole entry): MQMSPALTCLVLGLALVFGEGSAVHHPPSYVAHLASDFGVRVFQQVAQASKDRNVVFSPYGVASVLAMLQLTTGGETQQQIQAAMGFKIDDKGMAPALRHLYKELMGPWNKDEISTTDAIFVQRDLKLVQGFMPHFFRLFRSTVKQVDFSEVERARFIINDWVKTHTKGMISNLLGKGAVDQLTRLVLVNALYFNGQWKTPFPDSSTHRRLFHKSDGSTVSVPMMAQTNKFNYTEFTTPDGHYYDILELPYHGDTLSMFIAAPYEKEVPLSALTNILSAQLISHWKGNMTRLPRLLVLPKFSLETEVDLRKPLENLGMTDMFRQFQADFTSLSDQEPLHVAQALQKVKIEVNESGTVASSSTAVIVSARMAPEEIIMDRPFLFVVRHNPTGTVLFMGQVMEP
row,Structure (SMILES),inhibition [%]
1,O=C1N/C(=C\c2ccco2)C(c2ccco2)=C1c1ccccc1,36

# Target: T1, Plasminogen activator inhibitor 1
# Test: Inhibition of human PAI1 at 15 uM
row,Structure (SMILES),inhibition [%]
1,O=C1N/C(=C\c2ccc(C(=O)O)o2)C(c2ccco2)=C1c1ccccc1,34

# Target: T1, Plasminogen activator inhibitor 1
# Test: Inhibition of human PAI1
row,Structure (SMILES),IC50 [nM]
1,COc1ccc(C2=C(c3ccco3)/C(=C/c3ccncc3)NC2=O)cc1OC,7800
2,COc1ccc(C2=C(c3cccs3)/C(=C/c3ccc(/C=C/C(=O)O)o3)NC2=O)cc1OC,690
3,O=C(O)/C=C/c1ccc(/C=C2\NC(=O)C(c3ccccc3)=C2c2ccco2)o1,1500
4,N#C/C=C/c1ccc(/C=C2\NC(=O)C(c3ccccc3)=C2c2ccco2)o1,1200
5,COc1ccc(C2=C(c3ccco3)/C(=C/c3ccc(/C=C/C(=O)O)o3)NC2=O)cc1OC,1100
6,O=C(O)COc1cccc(/C=C2\NC(=O)C(c3ccccc3)=C2c2ccccc2)c1,9600
7,COc1ccccc1C1=C(c2ccccc2)C(=O)N/C1=C\c1ccc(/C=C/C(=O)O)o1,650
8,COc1ccccc1C1=C(c2ccccc2)C(=O)N/C1=C\c1ccc(C)o1,940
